Experimental data reported in doi:10.1101/2024.08.19.608619, “Discovery of potent SARS-CoV-2 nsp3 macrodomain inhibitors uncovers lack of translation to cellular antiviral response” (bioRxiv, 2024).

Legend:
[1] = iPSC pneumocytes cytotoxicity; assay type: cell-based; details: protocol iPSC pneumocytes cytotoxicity
From the text: Supplement media-1.zip/Cytotoxicity.csv, table | column: cc10; cc50; perc_min_measured; perc_max_measured

[2] = system: kinase panel; assay: Eurofins kinase panel; assay type: biochemical; details: test compound 10 uM
[3] = in vitro; set-up: Cytotoxicity in iPSC-derived pneumocytes, CC50; details: human, ipsc-derived pneumocytes; ASAP-0008327-001=ASAP-0011176-001; read-out: 50.0
[4] = biological target: CYP2C19 (Homo sapiens, UniProt P33261); assay: CYP inhibition; assay type: in vitro ADME; details: human; isoform 2C19; In vitro CYP inhibition pooled
From the text: (§1) Supplement media-1.zip/CYP_Inhibition.csv, table | column: ic50; potency

[5] = biological target: CYP1A2 (Homo sapiens, UniProt P05177); assay: CYP inhibition; assay type: in vitro ADME; details: human; isoform 1A2; In vitro CYP inhibition pooled
From the text: as §1

[6] = biological target: CYP2C9 (Homo sapiens, UniProt P11712); assay: CYP inhibition; assay type: in vitro ADME; details: human; isoform 2C9; In vitro CYP inhibition pooled
From the text: as §1

[7] = biological target: CYP2D6 (Homo sapiens, UniProt P10635); assay: CYP inhibition; assay type: in vitro ADME; details: human; isoform 2D6; In vitro CYP inhibition pooled
From the text: as §1

[8] = biological target: CYP3A4 (Homo sapiens, UniProt P08684); assay: CYP inhibition; assay type: in vitro ADME; details: human; isoform 3A4; In vitro CYP inhibition pooled
From the text: as §1

[9] = system: MERS-CoV; assay type: cell-based; details: Vero E6/TMPRSS2 MERS-CoV antiviral effect with P-gp inhibitor
[10] = biological target: HiBiT-tagged nsp3-mac1 in HEK293 cells (Severe acute respiratory syndrome coronavirus 2, UniProt P0DTD1); assay: HiBiT Cellular Thermal Shift Assay / isothermal dose response thermal shift assay (ITDRF CETSA); assay type: cell-based, SARS-CoV-2; details: fixed temperature 50.6°C
Procedure: A PCR product encoding SARS Cov-2 macrodomain residues 2 to 176 was cloned into the XhoI and BamHI restriction sites of the pBIT3.1-N vector (Promega) which has an N-terminal 11 amino acid HiBiT tag.
A PCR product encoding SARS Cov-2 macrodomain residues 1 to 176 was cloned into the HindIII and XhoI restriction sites of the pBIT3.1-C vector(Promega) which has an C-terminal 11 amino acid HiBiT tag.
Both constructs were evaluated for CETSA experiments and found to give similar results. For the results described the CHIBIT tag was used.
HiBiT Cellular Thermal Shift Assay (HiBiT-CETSA). To assess the engagement of nsp3-mac1 in intact cells, a HiBiT Cellular Thermal Shift Assay was conducted as described by Ramachandran et al. ([23]). The Nano-Glo HiBiT lytic detection system (Promega) was used according to the manufacturer’s instructions. Briefly, HEK293 cells were reverse-transfected with HiBiT-tagged nsp3-mac1 at a concentration of 400,000 cells/mL using the FuGENE transfection reagent (Promega). Following a 24-hour incubation period, the cells were trypsinized and resuspended in assay medium at the same concentration.
For CETSA, the cells were divided into two groups: one treated with 30 μM of the compounds and the other with DMSO as a control. […] The luminescence signals were measured using a PHERAstar FSX and analyzed with GraphPad Prism software (v.9 or v.10).

Sequence of CYP2D6 (P10635 whole entry, canonical isoform): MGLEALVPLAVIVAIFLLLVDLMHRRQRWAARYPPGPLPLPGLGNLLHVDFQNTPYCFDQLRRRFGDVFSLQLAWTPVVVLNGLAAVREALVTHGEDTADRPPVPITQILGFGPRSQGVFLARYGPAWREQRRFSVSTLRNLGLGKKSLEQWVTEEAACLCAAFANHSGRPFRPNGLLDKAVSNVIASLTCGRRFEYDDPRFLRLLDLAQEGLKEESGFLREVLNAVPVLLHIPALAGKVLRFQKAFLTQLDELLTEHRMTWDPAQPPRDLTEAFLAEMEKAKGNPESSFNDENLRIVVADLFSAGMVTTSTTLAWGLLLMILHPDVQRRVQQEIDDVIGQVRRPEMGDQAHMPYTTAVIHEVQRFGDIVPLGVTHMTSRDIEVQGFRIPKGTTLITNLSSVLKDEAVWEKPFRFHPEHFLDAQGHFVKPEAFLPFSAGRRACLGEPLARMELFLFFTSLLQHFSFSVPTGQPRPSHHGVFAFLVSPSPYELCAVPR
Sequence of CYP2C9 (P11712 whole entry, canonical isoform): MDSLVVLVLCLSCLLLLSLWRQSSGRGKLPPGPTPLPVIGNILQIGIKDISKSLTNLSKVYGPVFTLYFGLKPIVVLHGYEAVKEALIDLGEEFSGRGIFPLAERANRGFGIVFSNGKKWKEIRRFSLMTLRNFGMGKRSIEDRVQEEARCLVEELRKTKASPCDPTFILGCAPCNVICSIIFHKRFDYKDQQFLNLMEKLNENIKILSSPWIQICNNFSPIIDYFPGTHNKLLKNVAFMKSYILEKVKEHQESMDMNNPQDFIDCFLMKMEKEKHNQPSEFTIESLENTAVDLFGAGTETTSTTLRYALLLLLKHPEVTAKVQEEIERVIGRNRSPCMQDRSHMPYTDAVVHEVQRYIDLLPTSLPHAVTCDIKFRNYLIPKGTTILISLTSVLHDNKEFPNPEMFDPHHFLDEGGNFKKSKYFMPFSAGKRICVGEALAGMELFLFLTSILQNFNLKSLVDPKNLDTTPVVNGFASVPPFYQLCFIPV
Sequence of CYP2C19 (P33261 whole entry, canonical isoform): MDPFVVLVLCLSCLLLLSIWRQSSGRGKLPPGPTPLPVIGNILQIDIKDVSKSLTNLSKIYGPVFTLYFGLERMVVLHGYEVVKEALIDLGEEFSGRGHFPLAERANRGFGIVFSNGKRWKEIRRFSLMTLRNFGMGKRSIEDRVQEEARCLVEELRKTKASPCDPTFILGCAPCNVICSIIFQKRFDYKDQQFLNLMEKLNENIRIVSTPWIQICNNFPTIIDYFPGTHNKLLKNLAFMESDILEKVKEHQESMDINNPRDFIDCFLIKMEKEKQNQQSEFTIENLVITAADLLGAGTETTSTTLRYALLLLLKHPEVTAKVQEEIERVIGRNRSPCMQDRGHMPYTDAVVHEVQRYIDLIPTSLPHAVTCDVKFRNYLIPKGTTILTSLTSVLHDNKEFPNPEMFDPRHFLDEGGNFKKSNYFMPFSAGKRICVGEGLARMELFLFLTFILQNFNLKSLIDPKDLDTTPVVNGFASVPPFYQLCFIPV
Sequence of CYP3A4 (P08684 2-503): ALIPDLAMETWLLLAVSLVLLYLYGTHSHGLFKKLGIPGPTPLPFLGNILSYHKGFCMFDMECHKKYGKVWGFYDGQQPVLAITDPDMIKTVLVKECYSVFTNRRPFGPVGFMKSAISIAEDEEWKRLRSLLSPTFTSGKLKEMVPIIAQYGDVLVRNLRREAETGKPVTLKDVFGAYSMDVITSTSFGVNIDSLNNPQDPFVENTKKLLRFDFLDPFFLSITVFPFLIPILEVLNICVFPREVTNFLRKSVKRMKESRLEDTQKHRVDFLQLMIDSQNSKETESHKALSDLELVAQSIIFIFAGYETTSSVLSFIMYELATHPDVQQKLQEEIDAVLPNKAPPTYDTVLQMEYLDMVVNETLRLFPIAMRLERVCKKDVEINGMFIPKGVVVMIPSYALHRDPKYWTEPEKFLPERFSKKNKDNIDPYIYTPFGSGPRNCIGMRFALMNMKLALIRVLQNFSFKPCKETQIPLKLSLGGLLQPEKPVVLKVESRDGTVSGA
Sequence of CYP1A2 (P05177 2-516): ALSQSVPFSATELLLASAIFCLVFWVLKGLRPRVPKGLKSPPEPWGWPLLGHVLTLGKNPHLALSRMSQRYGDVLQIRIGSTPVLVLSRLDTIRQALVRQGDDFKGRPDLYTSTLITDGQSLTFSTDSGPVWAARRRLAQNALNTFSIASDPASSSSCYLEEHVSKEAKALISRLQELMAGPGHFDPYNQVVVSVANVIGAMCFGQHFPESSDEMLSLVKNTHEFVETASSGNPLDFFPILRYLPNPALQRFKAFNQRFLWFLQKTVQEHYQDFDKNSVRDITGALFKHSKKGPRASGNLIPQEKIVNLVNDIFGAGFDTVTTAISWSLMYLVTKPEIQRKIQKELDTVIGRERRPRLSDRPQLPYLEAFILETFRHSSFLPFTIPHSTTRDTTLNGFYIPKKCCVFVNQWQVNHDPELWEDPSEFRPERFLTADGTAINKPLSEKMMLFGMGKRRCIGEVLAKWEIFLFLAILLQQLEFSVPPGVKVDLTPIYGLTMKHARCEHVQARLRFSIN

Structure (SMILES): CC(C)C(Nc1ncnc2[nH]ccc12)c1ccc2c(c1)S(=O)(=O)CCC2 (centres unmarked) [ASAP-0008327]
- CC50 [1]: > 50 µM
- perc_activity ([2]; kinase ALK(h), ATP 200 uM): 93%
- perc_activity ([2]; kinase AMPKα1(h), ATP 45 uM): 94%
- perc_activity ([2]; kinase ASK1(h), ATP 200 uM): 108%
- perc_activity ([2]; kinase Abl(h), ATP 45 uM): 93%
- perc_activity ([2]; kinase Aurora-A(h), ATP 15 uM): 57%

Structure (SMILES): CNCc1cc(-c2cc3c(N[C@@H](c4ccc5c(c4)S(=O)(=O)CCC5)C(C)C)ncnc3[nH]2)co1 [ASAP-0011176]
- CC50 [3]: > 50 µM

Structure (SMILES): CC(C)C(Nc1ncnc2[nH]c(C(=O)NC3CCN(C)C3)cc12)c1ccc2c(c1)S(=O)(=O)CCC2 (centres unmarked) [ASAP-0011198]
- IC50 [4]: > 50 µM
- IC50 [5]: > 50 µM
- IC50 [6]: > 50 µM
- IC50 [7]: > 50 µM
- IC50 [8]: > 50 µM

Structure (SMILES): Cn1ncc(-c2cc3c(N[C@@H](c4ccc5c(n4)OCCO5)C(C)(C)C)ncnc3[nH]2)c1C#N [ASAP-0011221]
- EC50 [9]: > 5 µM
- EC90 [9]: > 5 µM
- perc_max_measured ([9]; maximum measured response): 128.492%
- perc_min_measured ([9]; minimum measured response): 99.797%

Structure (SMILES): Cc1nn(C)cc1-c1cc2c(NC(c3ccc4c(c3)S(=O)(=O)CCC4)C(C)C)ncnc2[nH]1 (centres unmarked) [ASAP-0011446]
- EC50 [10]: 0.014 µM
